From patent publication US4289883A, “Carbostyril compounds” (Otsuka Pharmaceutical Co., Ltd., priority 1976, dated 1981)
Read-outs that look alike come from different tables or passages of the source.

Tests used:
[1] = acute toxicity (LD50), i.v. and p.o.; design: species or system rats; conditions: rat, in vivo
Method: Further, the acute toxicity of the compounds of the present invention having the formula (I) was determined by intravenous administration (i.v.) and oral administration (p.o.) in 5 to 6 group of rats (dd, strain; body weight, 18 to 22 g; 10 rats in each group) which have been fasted for 12 hours prior to the test.

β-adrenoreceptor = experiment: β-adrenergic blocking activity in anesthetized dogs (antagonism to isoprenaline effects on heart rate, diastolic blood pressure and air-way resistance); assay type: in vivo; conditions: 10 minutes after i.v. test compound 300 μg/kg; for Inhibition (%) dBP (Diastolic Blood Pressure): antagonism to isoprenaline (1 μg/kg i.v.) induced depression of diastolic blood pressure; for Inhibition (%) dBP (Diastolic Blood Pressure) / Inhibition (%) AR (AirWay Resistance): dogs; for Inhibition (%) HR (Heart Rate): antagonism to isoprenaline (1 μg/kg i.v.) induced increase in heart rate, male hybrid adult dogs; for Inhibition (%) AR (AirWay Resistance): antagonism to isoprenaline depression of histamine (5 μg/kg i.v.) induced increase of air-way resistance
Method: The β-adrenergic blocking activity of the compounds of this invention was determined as follows:
Male hybrid adult dogs, weighing 10 to 16 kg, were anesthesized with sodium pentobarbital administered intravenously at a level of 30 mg/kg of body weight, and a cannula was inserted into the trachea of each of the anesthesized dogs. In order to avoid blood coagulation, heparin was administered intravenously at a level of 1000 units and thereafter a cannula was inserted into the right femoral artery. The experiments were conducted under artificial respiration at a rate of 20 ml/kg, 18 r.p.m.
The above parameters were continuously recorded on a polygraph (8S 28 Type, tradename of Sanei Sokki Co., Japan). During the experiment, gallamine was administered intravenously at a dosage of 3 mg/kg at one-hour intervals to avoid fluctuation of air-way resistance.
The β-adrenergic blocking activity of each of the test compounds was evaluated in terms of antagonism (Inhibition %) to the depression at the diastolic blood pressure (dBP) and to the increase in the heart rate induced by the intravenous administration of isoprenaline (1 μg/kg) and in terms of antagonism (Inhibition %) to the depression by isoprenaline in increase of air-way resistance which was induced by intravenous administration of histamine (5 μg/kg). In this case, histamine was administered 45 seconds after the administration of isoprenaline.

SMILES | LD50 ([1]; iv, Rats (Female), read-out: LD50 (50% lethal dose) i.v.) | LD50 ([1]; iv, Rats (Male), read-out: LD50 (50% lethal dose) i.v.) | LD50 ([1]; po, Rats (Female), read-out: LD50 (50% lethal dose) p.o.) | LD50 ([1]; po, Rats (Male), read-out: LD50 (50% lethal dose) p.o.) | Inhibition (%) dBP (Diastolic Blood Pressure) (β-adrenoreceptor) | Inhibition (%) HR (Heart Rate) (β-adrenoreceptor) | Inhibition (%) AR (AirWay Resistance) (β-adrenoreceptor)
COCCOc1ccc(OCC(O)CNCCc2ccc(OC)c(OC)c2)c2c1NC(=O)CC2.O=C(O)/C=C\C(=O)O (stereo not drawn) [8-(2-methoxyethoxy)-5-[3-(3,4-dimethoxyphenethylamino)-2-hydroxypropoxy]-3,4-dihydrocarbostyril maleate] | 160 mg/kg | 185 mg/kg | 1450 mg/kg | 1550 mg/kg |  |  | 
COc1ccc(CCNCC(O)COc2ccc(OCCO)c3c2CCC(=O)N3)cc1OC (stereo not drawn) [Sample 8] |  |  |  |  | 16.8% | 26.3% | 8.1%
COCCOc1ccc(OCC(O)CNC(C)C)c2c1NC(=O)CC2 (stereo not drawn) [Sample 17] |  |  |  |  | 34.1% | 41.8% | 9.7%
CC(C)(C)NCC(O)COc1ccc(OCc2ccccc2)c2c1CCC(=O)N2 (stereo not drawn) [Prior Art Compound 3, reference compound] |  |  |  |  | 10.2% | 71.3% | 67.8%
C#CCOc1ccc(OCC(O)CNC(C)(C)Cc2ccccc2)c2c1NC(=O)CC2 (stereo not drawn) [Sample 9] |  |  |  |  | 75.7% | 61.7% | 41.3%
C#CCOc1ccc(OCC(O)CNCCc2ccc(OC)c(OC)c2)c2ccc(=O)[nH]c12 (stereo not drawn) [Sample 16] |  |  |  |  | 40.9% | 55.3% | 13.7%
CCOC(=O)COc1ccc(OCC(O)CNCCc2ccc(OC)c(OC)c2)c2c1NC(=O)CC2 (stereo not drawn) [Sample 15] |  |  |  |  | 8.5% | 10.2% | 2.7%
CC(C)NCC(O)COc1ccc(CC(N)=O)cc1 (stereo not drawn) [Atenolol, reference compound] |  |  |  |  | 26.9% | 52.3% | 9.8%
C#CCOc1ccc(OCC(O)CNC2CCCCC2)c2c1NC(=O)CC2 (stereo not drawn) [Sample 21] |  |  |  |  | 22.0% | 17.3% | 8.3%
CC(C)(C)NCC(O)COc1ccc(O)c2c1CCC(=O)N2 (stereo not drawn) [Prior Art Compound 1, reference compound] |  |  |  |  | 100% | 100% | 100%
CC(=O)Oc1ccc(OCC(O)CNC(C)(C)C)c2c1N(Cc1ccccc1)C(=O)CC2 (stereo not drawn) [Sample 13] |  |  |  |  | 77.5% | 85.2% | 59.3%
C=CCOc1ccc(OCC(O)CNC(C)(C)C)c2c1NC(=O)CC2.Cl (stereo not drawn) [Sample 18, 8-allyloxy-5-(3-t-butylamino-2-hydroxypropoxy)-3,4-dihydrocarbostyril hydrochloride] |  |  |  |  | 100% | 34.6% | 0%
C=CCOc1ccc(OCC(O)CNCC(c2ccccc2)c2ccccc2)c2c1NC(=O)CC2 (stereo not drawn) [Sample 10] |  |  |  |  | 20.4% | 25.8% | 3.5%
COc1ccc(CCNCC(O)COc2ccc(OCC(=O)O)c3c2CCC(=O)N3)cc1OC (stereo not drawn) [Sample 19] |  |  |  |  |  | 50.0% | 9.4%
CC(C)NCC(O)COc1ccc(OC(=O)C2CCCCC2)c2c1CCC(=O)N2 (stereo not drawn) [Sample 14] |  |  |  |  | 36.3% | 43.2% | 27.6%
COc1ccc(CCNCC(O)COc2ccc(OCC(=O)O)c3c2CCC(=O)N3)cc1OC (stereo not drawn) [Sample 11] |  |  |  |  | 47.1% | 50.0% | 9.4%
COc1ccc(CCNCC(O)COc2ccc(OCC(N)=O)c3c2CCC(=O)N3)cc1OC (stereo not drawn) [Sample 12] |  |  |  |  | 44.2% | 57.9% | 15.2%
CC(C)(C)NCC(O)COc1cccc2c1CCC(=O)N2 (stereo not drawn) [Comparison Compound 1, reference compound] |  |  |  |  | 100% | 100% | 100%
COc1ccc(CCNCC(O)COc2ccc(OCC(C)=O)c3c2CCC(=O)N3)cc1OC (stereo not drawn) [Sample 4] |  |  |  |  | 15.1% | 44.6% | 2.7%
COc1ccc(CCNCC(O)COc2cccc3c2CCC(=O)N3)cc1OC (stereo not drawn) [Comparison Compound 2, reference compound] |  |  |  |  | 65.6% | 87.2% | 79.1%
COc1ccc(OCC(O)CNC(C)(C)C)c2c1NC(=O)CC2 (stereo not drawn) [Prior Art Compound 2, reference compound] |  |  |  |  | 83.7% | 82.1% | 80.2%
C=CCOc1ccc(OCC(O)CNCCc2ccc(OC)c(OC)c2)c2c1NC(=O)CC2 (stereo not drawn) [Sample 2] |  |  |  |  | 23.5% | 50.2% | 24.5%
C#CCOc1ccc(OCC(O)CNC(C)(C)C)c2c1NC(=O)CC2 (stereo not drawn) [Sample 6] |  |  |  |  | 94.5% | 100% | 47.6%
COCCOc1ccc(OCC(O)CNCCc2ccc(OC)c(OC)c2)c2c1NC(=O)CC2 (stereo not drawn) [Sample 1] |  |  |  |  | 28.3% | 45.5% | 25.0%
C#CCOc1ccc(OCC(O)CNCC=C)c2c1NC(=O)CC2 (stereo not drawn) [Sample 5] |  |  |  |  | 35.0% | 50.5% | 24.3%
COCCOc1ccc(OCC(O)CNCCOc2ccc(OC)cc2)c2c1NC(=O)CC2 (stereo not drawn) [Sample 20] |  |  |  |  | 18.1% | 23.7% | 8.3%
C#CCOc1ccc(OCC(O)CNC(c2ccccc2)c2ccccc2)c2c1NC(=O)CC2 (stereo not drawn) [Sample 7] |  |  |  |  | 20.5% | 18.4% | 8.0%
C#CCOc1ccc(OCC(O)CNCCc2ccc(OC)c(OC)c2)c2c1NC(=O)CC2 (stereo not drawn) [Sample 3] |  |  |  |  | 39.5% | 57.6% | 14.0%
